{"source": "patent US8299034B2", "about": "“Nutritional compositions for promotion of bone growth and maintenance of bone health comprising extracts of for example rosemary or caraway” (Nestec S.A., priority 2008, dated 2012)", "key": {"[1]": {"test_system": "BMP-2", "assay": "BMP-2 high throughput gene reporter assay", "type": "cell-based", "text": "(§1) The following bioassays were used for bone formation analysis • BMP-2 gene reporter assay (high throughput screen) • Alkaline phosphatase in osteoblast cells • Calvaria organ culture in vitro, bone formation • Injection into calvaria in vivo, bone formation.\n(§2) For example, extracts were screened for bone formation by a high throughput gene reporter assay for BMP-2 followed by an alkaline phosphatase assay and an organ culture model and finally by injection into mice calvaria in vivo. Subfractions of positive extracts and/or pure compounds were further tested for activity. Analysis of the chemical composition of one active extract was performed in order to determine the active compounds.\n(§3) The screening for bone formation was carried out in several stages: • (i) BMP-2 high throughput gene reporter assay of non-hydrolyzed MeOH/H2O extracts (1a) and corresponding glycosidase hydrolyzed extract in ethyl acetate (1b). […] Extracts were assessed in a 4-day in vitro neonatal murine calvarial assay. Bones were incubated with the extracts for the entire 4 days. • (vi) Resorption activity monitored by measuring the amount of type I collagen released in the media as osteoclasts digest bone."}, "[2]": {"test_system": "osteoblast cells", "assay": "Alkaline phosphatase assay in osteoblast cells", "type": "cell-based", "experimental": "as §1, §3"}, "[3]": {"test_system": "neonatal murine calvarial bones", "assay": "Calvaria organ culture in vitro, bone formation", "type": "cell-based", "details": "phenolics tested at 1-10 μM", "experimental": "as §1, §3"}, "[4]": {"test_system": "bone formation", "assay": "Bone formation bioassays, assay not specified (anabolic potential)", "text": "as §1\nas §2, with “activity.” for “activity. Analysis of the chemical composition of one active extract was performed in order to determine the active compounds.”\n(§4) The rosemary plant extracts and the pure compounds were tested in an osteoblast/osteoclast co-culture system."}, "[5]": {"test_system": "Osteopontin (OPN) mRNA in hPOBtert cells", "assay": "Osteopontin (OPN) mRNA induction by real-time PCR", "type": "cell-based, human", "details": "48 h, normalised to β-actin", "experimental": "Cell culture—HPOBTert osteoblasts were seeded on collagen-coated plates and grown in MEM Eagle α Modification medium supplemented with 10% fetal bovine serum, 1% L-glutamine and penicillin/streptomycin, 1 mM β-glycerolphosphate and 50 μg/ml ascorbic acid in a humidified atmosphere of 5% CO2, and 95% air at 37° C. When carnosol and inhibitors were added, an equivalent amount of Me2SO was used as a vehicle control.\nAnalysis of mRNA levels by Real-Time PCR—Total cellular RNA was extracted using the NucleoSpin RNA II kit (Macherey-Nagel, Switzerland). Equal amounts (1 μg) of RNA from the different treatments were reverse-transcribed using the First Strand cDNA Synthesis kit for RT-PCR (Roche, Mannheim, Germany). For each sample, 2 μl 10× reaction buffer, 4 μl 25 mM MgCl2, 2 μl nucleotide mix, 2 μl random primers, 1 μl RNAse inhibitor and 0.4 μl AMV reverse transcriptase from the kit were added to the sample. The reverse transcriptase was performed at the following thermal cycling conditions (25° C. for 10 min, 42° C. for 60 min, and 75° C. for 5 min) using the PTC-100™ […]).\nReal-time Quantitative PCR—Quantitative PCR was performed in 25 μl in triplicates. This consisted of 12.5 μl of Taqman 2× Universal PCR Master Mix, 1.25 μl Assay-on-Demand primers and probes (Applied Biosystems, USA) and 6.25 μl RNAse free water. […]"}, "[6]": {"test_system": "NQO1 in hPOBtert cells", "assay": "NQO1 induction, immunoblot", "type": "cell-based, human", "experimental": "Preparation of cytoplasmic extracts—hPOBtert cells were washed two times with cold phosphate-buffered saline and harvested with lysis buffer (1% Triton X-100, 20 mM Tris/HCL pH 8, 137 mM Nacl, 10% Glycerol, 2 mM EDTA pH 8, and freshly added proteinase inhibitors: 1 mM phenylmethylsulfonylfluoride, 0.15 U/ml Aprotinin, 10 μg/ml Leupeptide and 10 μg/ml Pepstatin). The samples were centrifuged at 13000 rpm, 4° C. for 5 min and the supernatant transferred to a fresh tube. The protein concentration was determined using the BioRad protein assay. Approximately 50 μg of each sample were mixed with a suitable volume of sample buffer, denatured for 5 min at 95° C. together with 5 μl protein standard, chilled on ice, and loaded on a 10% ready gel, and submitted to immunoblot analysis using anti-NQO1 antibodies.\nImmunoblotting—50 μg of protein cell lysate were resolved by SDS-PAGE. After electrophoresis, proteins were transferred to a PVDF membrane (Invitrogen) according to the manufacturer's protocol. Membranes probed for OPN and NQO1 were blocked and probed in 5% milk in Tris-buffered saline/Tween (20 mM Tris base, pH 7.6, 137 mM, 0.1% Tween 20). The blots were visualised by chemiluminescence development, Western blotting detection system (Amersham Biosciences).\nAntibodies—The NQO1 (sc-16464)-specific antibodies were purchased from Santa Cruz Biotechnologies Inc (Santa Cruz, Calif.). […]"}, "[7]": {"test_system": "OPG/RANKL", "assay": "Osteoblast/osteoclast co-culture system, OPG/RANKL regulation", "type": "cell-based", "experimental": "as §4"}}}
{"smiles": "O=c1cc(-c2ccc(O)cc2)oc2cc(O)c(O)c(O)c12", "note": "[Scutellarein]", "values": [{"measurement": "BMP-2 induction", "setting": "[1]; 5, 10 μM", "value": "3-4X"}, {"measurement": "ALP activity induction", "setting": "[2]; 10 μM", "value": 2, "unit": "X"}]}
{"smiles": "COc1ccc(-c2cc(=O)c3c(O)cc(O)cc3o2)cc1", "note": "[Acacetin]", "values": [{"measurement": "BMP-2 induction", "setting": "[1]; 5-10 μM", "value": 5.5, "unit": "X"}, {"measurement": "ALP activity induction", "setting": "[2]; 5-10 μM", "value": 2, "unit": "X"}]}
{"smiles": "O=c1c(O)c(-c2ccc(O)cc2)oc2cc(O)cc(O)c12", "note": "[Kaempferol]", "values": [{"measurement": "BMP-2 induction", "setting": "[1]; 1-10 μM", "value": 2.5, "unit": "X"}, {"measurement": "ALP activity induction", "setting": "[2]; 2.5-10 μM", "value": "2-4X"}, {"measurement": "Bone formation in organ culture", "setting": "[3]", "value": "Yes"}, {"measurement": "anabolic potential", "setting": "[4]", "value": "anabolic potential"}]}
{"smiles": "COc1cc(C=CC(=O)OCC2OC(Oc3cc4oc(-c5ccc(O)c(O)c5)cc(=O)c4c(O)c3OC)C(O)C(O)C2O)ccc1O", "note": "(stereo not shown) [6″-Feruloylnepitrin]", "values": [{"measurement": "anabolic potential", "setting": "[4]", "value": "anabolic potential"}]}
{"smiles": "COc1c(OC2OC(COC(=O)C=Cc3ccc(O)cc3)C(O)C(O)C2O)cc2oc(-c3ccc(O)c(O)c3)cc(=O)c2c1O", "note": "(stereo not shown) [6″-Coumaroylnepitrin]", "values": [{"measurement": "anabolic potential", "setting": "[4]", "value": "anabolic potential"}]}
{"smiles": "COc1cc(O)c2c(=O)cc(-c3ccc(O)cc3)oc2c1", "note": "[Genkwanin]", "values": [{"measurement": "BMP-2 induction", "setting": "[1]; 5 μM", "value": 4, "unit": "X"}, {"measurement": "ALP activity induction", "setting": "[2]; 10 μM", "value": 1.5, "unit": "X"}]}
{"smiles": "CC(C)c1cc2c(c(O)c1O)[C@@]13CCCC(C)(C)[C@@H]1C[C@@H]2OC3=O", "note": "[Carnosol]", "values": [{"measurement": "BMP-2 induction", "setting": "[1]; 2.5-10 μM", "value": "4.5-7X"}, {"measurement": "ALP activity induction", "setting": "[2]; 2.5-10 μM", "value": 2, "unit": "X"}, {"measurement": "Bone formation in organ culture", "setting": "[3]", "value": "Yes"}, {"measurement": "OPN mRNA levels", "setting": "[5]", "value": "induce OPN expression dose-dependently"}, {"measurement": "NQO1 expression", "setting": "[6]", "value": "induces the expression of the phase II enzyme NQO1"}, {"measurement": "regulation of OPG/RANKL", "setting": "[7]", "value": "activity for regulation of the key cytokines controlling bone remodeling"}, {"measurement": "anabolic potential", "setting": "[4]", "value": "anabolic potential"}]}
{"smiles": "COc1c(O)cc2oc(-c3ccc(O)c(O)c3)cc(=O)c2c1O", "note": "[Eupafolin]", "values": [{"measurement": "BMP-2 induction", "setting": "[1]; 2.5-10 μM", "value": "3-8X"}, {"measurement": "ALP activity induction", "setting": "[2]; 5 μM", "value": 2, "unit": "X"}, {"measurement": "ALP activity induction", "setting": "[2]; 10 μM", "value": 4, "unit": "X"}, {"measurement": "Bone formation in organ culture", "setting": "[3]", "value": "Yes"}, {"measurement": "regulation of OPG/RANKL", "setting": "[7]", "value": "activity for regulation of the key cytokines controlling bone remodeling"}, {"measurement": "anabolic potential", "setting": "[4]", "value": "anabolic potential"}]}
